In patent publication US9096554B2, “Drugs for inhibiting p38 and uses thereof” (UNIVERSIDAD AUTÓNOMA DE MADRID, priority 2011, dated 2015):
“Also recorded” adds a separate entry of the source.

Key:
p38 MAPK = assay: Activation of p38 MAPK in response to LPS and its activity (P-MK2, P-Hsp27) in THP-1 cells, Western Blot; type: cell-based, human; settings: THP-1, LPS, 1 and 5 μM, FIG. 2B
Description: This assay was performed to analyze the effect of Compound 1 on the activation of p38 MAPK and on its activity in a human monocytic cell line (THP-1) (American Type Culture Collection: http://www.atcc.org/) treated with different concentrations of said compound.
Briefly, human monocytic cells from said THP-1 cell line at a density of about 10^6 cells/ml were stimulated with bacterial LPS (Sigma #L2654) at a concentration of between 1 and 10 mg/ml (which may vary depending on the batch) for 1 hour in the absence or presence of Compound 1 at different concentrations (1 μM and 5 μM) dissolved in dimethyl sulfoxide (DMSO). DMSO was used as a control. The cells were lysed in a 100 mM pH 7.5 Tris/HCl buffer, 200 mM EDTA, 1 μM benzamidine, 10 mg/ml STI (soy trypsin inhibitor), 10 mg/ml bacitracin, 80 mU/ml aprotinin, 100 μM phenylmethanesulfonyl fluoride (PMSF) and phosSTOP (Roche, Ref.#04906845001). The samples were subsequently analyzed using Western Blot with specific antibodies. Briefly, the activation of p38 MAPK was analyzed by quantifying by densitometry the amount of p38 MAPK phosphorylated in the activation loop (TGY) by means of Western Blot with anti-phospho-T180-Y182-p38 antibodies (Cell Signaling, Ref.#9211) and by normalizing the values with those obtained for total p38 MAPK levels in each lysate. […]

[1] = test system: spinal cord astrocytes and neurons; assay: Toxicity at the intrathecal injection site, Fluoro-Jade B staining, LysM-GRK2f/+ mice; type: in vivo; settings: two days after the injection, FIG. 10
Description: Furthermore, the possible toxicity of Compound 1 at the injection site (intrathecal) was measured.

TNF-α = TNF-α levels in the spinal cord after intrathecal treatment (ELISA); type: in vivo, mice; settings: FIG. 11D
Description: To find out if TNF-α levels are repressed in vivo after treatment with Compound 1, the spinal cord was isolated two days after intrathecal treatment with said compound and TNF-α levels were analyzed with ELISA.

LysM-GRK2^f/+ mice = assay: Carrageenan-induced hyperalgesia in LysM-GRK2f/+ mice, intrathecal injection; type: in vivo
Description: To perform this assay, a previously described protocol was followed [Willemen H L, et al., Microglial/macrophage GRK2 determines duration of peripheral IL-1beta-induced hyperalgesia: contribution of spinal cord CX3CR1, p38 and IL-1 signaling. Pain. 2010 September; 150(3):550-60; and Eijkelkamp N, et al., (http://www.ncbi.nlm.nih.gov/pubmed/20147541; J. Neurosci. 2010 Feb. 10; 30(6):2138-49). Briefly, eight female LysM-GRK2^f/+ mice (2 mice per group, 4 paws for each condition) were subjected to an intraplantar injection of carrageenan (Sigma-Aldrich, […] of a 1% solution in saline) for inducing inflammatory-type hyperalgesia in the extremities. Seven (7) days after injecting carrageenan, the paw withdrawal latency time when the paw is in contact with heat was determined as an indication of inflammatory-type pain at time 0 (T=0). The carrier (20% DMSO) or Compound 1 at different concentrations (0.15, 0.5 and 1.5 μg in 5 μL of 20% DMSO) was then intrathecally injected.
The paw withdrawal latency periods were then measured at different times (0.5, 1, 2, 4, 6, 8, 10, 24, 48 and 96 hours after injecting the compound).
To evaluate the effect of Compound 5 on hyperalgesia induced in mice, a protocol similar to that described for Compound 1 in Example 9A was followed, but in this protocol, the known p38 MAPK inhibitor SB239063 (5 μg in 5 μL of 20% DMSO), the carrier (20% DMSO), or Compound 5 (4 μg in 5 μL of 20% DMSO) was intrathecally injected 7 days after injecting the carrageenan.

[2] = test system: TNF-α secretion in response to bacterial LPS in human monocytes (THP-1); assay: TNF-α secretion in response to LPS in THP-1 monocytes (ELISA); type: cell-based
Description: This assay was performed to analyze the effect of the compounds of the invention on tumor necrosis factor alpha (TNF-α) secretion in response to bacterial lipopolysaccharide (LPS) in human monocytes (THP-1) and on the survival of said THP-1 monocytes in the presence of said compounds.
Briefly, cells from human monocytic cell line THP-1 (ATCC) at a density of about 10^6 cells/ml were stimulated with bacterial LPS (Sigma, Ref.# L2654) at a concentration of 1 mg/ml for 4 hours in the presence of the compounds of the invention dissolved in dimethyl sulfoxide (DMSO) at different concentrations (0.001, 0.01, 0.1, 1, 10 and 100 μM). The amount of TNF-α secreted into the medium in response to LPS was quantified by means of an ELISA assay (BioTrak, Ref.# RPN2758, GE-Amersham) following the manufacturer's instructions. Cell viability was quantified by means of flow cytometry FACS (FACScalibur, Becton Dickinson) after staining the treated cells with propidium iodide (1 mg/l) and quantifying the amount of positive cells for this stain (Software Cell Quest Pro).
These assays were performed to compare the effect of the compounds of the invention (compounds 1, 2 and 3) on tumor necrosis factor alpha (TNF-α) secretion in response to bacterial lipopolysaccharide (LPS) in human monocytes (THP-1) with respect to compounds that are structurally related but have a different substitution pattern in the phenyl ring. Conditions similar to those described in Example 7 were used.

`Cc1ccc(Cl)cc1Nc1ccc([N+](=O)[O-])c2nonc12` [Compound 1, (5-chloro-2-methyl-phenyl)-(7-nitro-benzo[1,2,5]oxadiazol-4-yl)-amine] was tested, and the “activation of p38 MAPK (P-p38)” value (p38 MAPK) was “decrease in the activation of p38 MAPK”, the “phosphorylation of MK2 and Hsp27 substrates” value (p38 MAPK) was “decrease in the phosphorylation” and the “neurotoxicity at the injection site (Fluoro-Jade B, dead or damaged cells)” value [1] was “no signs of neurotoxicity were detected; also recorded: hardly any dead cells”. For the same compound, the “TNF-α levels in the spinal cord” value (TNF-α; after intraplantar carrageenan, two days after intrathecal treatment) was “significantly reduces”, the “TNF-α secretion, compound alone” value (TNF-α; without carrageenan) was “has no effect” and the long-term analgesic effect (LysM-GRK2^f/+ mice; dose of 0.3 μg intrathecal, FIG. 9B) was “did not provide any long-term analgesic effect”. For the same compound, the “time the reduction of hyperalgesia was maintained after administering” value (LysM-GRK2^f/+ mice; doses of 0.5 and 1.5 μg intrathecal) was at least 96 h, the “hyperalgesia (paw withdrawal latency to heat)” value (LysM-GRK2^f/+ mice; doses of 0.5 and 1.5 μg intrathecal, 7 days after carrageenan, FIG. 9A) was “almost complete reduction of hyperalgesia” and the lowest effective dose (LysM-GRK2^f/+ mice; intrathecal, FIG. 9B) was 0.5 µg. The IC50 ([2]; Homo sapiens, Table 2, THP-1, LPS, TNF-α ELISA) was 1.8 ± 0.006 µM and the “activity in TNF-α secretion inhibition compared with comparative Compounds 10-14” value ([2]; human monocytes, FIG. 8) was “greater activity”.
